“Also recorded” adds a separate entry of the source. Read-outs that look alike come from different tables or passages of the source. Marks after values point to notes of the source that are not given here.

As usually defined, the kcat is the number of substrate molecules converted per active site and unit of time at saturation.

The target in test [1] is T1, ecTSase (Escherichia coli, UniProt P0A884).
The target in test [2] is T1, ecTSase. Description: Noncompetitive KIE experiments. Type of test: biochemical. Particulars: w/ 50 mM MgCl2, 25 °C; for KMCH2H4folate / kcat: 100 μM dUMP, pH 7.5.
Test [3] deals with Escherichia coli TSase (ecTSase) (Escherichia coli, UniProt P0A884). Description: Steady-state initial velocities of ecTSase. Type of test: biochemical. Particulars: for Hill coefficient x (inhibitory binding mode): Eq 3.
In test [4] the target is T2, apo-ecTSase (Escherichia coli, UniProt P0A884). Particulars: read-out: Kd of Mg^2+ for apo-ecTSase; 25 °C, pH 7.5, one-site binding fit.
Test [5] has as its target T2, apo-ecTSase. Description: biochemical.
The target in a further test is ecTSase-Mg^2+ complex (Escherichia coli, UniProt P0A884). Description: Fluorescence assay, dUMP titration into ecTSase pre-incubated with MgCl2. Type of test: binding.
The target in the next test is ecTSase-dUMP complex. Type of test: binding, Escherichia coli. Particulars: read-out: KdCH4H4fol; w/o Mg^2+, 25 °C, calculated using Eq 5.
In test [6] the target is ecTSase-dUMP-Mg^2+ complex. Type of test: binding, Escherichia coli. Particulars: read-out: KdCH4H4fol; w/ 50 mM MgCl2, 25 °C, calculated using Eq 5.

Escherichia coli TSase (ecTSase), sequence (P0A884 whole entry): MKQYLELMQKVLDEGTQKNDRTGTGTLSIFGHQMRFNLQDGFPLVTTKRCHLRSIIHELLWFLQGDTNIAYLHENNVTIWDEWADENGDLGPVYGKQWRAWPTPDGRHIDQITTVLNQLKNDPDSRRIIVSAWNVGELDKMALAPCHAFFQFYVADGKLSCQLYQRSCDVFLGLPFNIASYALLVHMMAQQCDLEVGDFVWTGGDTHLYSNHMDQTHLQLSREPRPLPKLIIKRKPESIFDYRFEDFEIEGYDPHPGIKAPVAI
T1 sequence (P0A884 whole entry): as above
T2 sequence (P0A884 whole entry): as above
ecTSase-Mg^2+ complex, sequence (P0A884 whole entry, one chain of several): as the sequence (P0A884 whole entry) above

As for `[Mg+2]` [Mg^2+], the “AH/AT (isotope effect on the Arrhenius prefactors of the hydride transfer)” value at ecTSase [1] (w/ 50 mM MgCl2) was 6.6 ± 1.3. For the same compound, the “intrinsic H/D KIE (^Dk) on the hydride transfer” value at ecTSase [1] (w/ 50 mM MgCl2, 25 °C, competitive KIE experiment) is listed as 3.9 ± 0.2^a. Further, on ecTSase [2], the “observed H/D KIE on kcat (^Dkcat)” value stood at 3.8 ± 0.3. Also, the “increase of kcat (hydride transfer rate) by Mg^2+” value in test [3] (50 mM MgCl2, 5-35 °C) is “ca. 7 fold”. Also, in test [3] (50 mM MgCl2, 25 °C), the “increase of the Michaelis constant of dUMP by Mg^2+” value is reported as “ca. 5 fold”, the “reduction of activation free energy ΔG^‡ of kcat by Mg^2+” value is recorded as “ca. 1 kcal/mol” and the “reduction of entropy of activation TΔS^‡ of kcat by Mg^2+” value is reported as “ca. 1 kcal/mol”. For the same compound, the “-TΔS^‡ at 25 °C from fitting kcat to the Eyring equation” value in test [3] (w/ 50 mM MgCl2) was found to be 12.8 ± 0.2 kcal/mol. The “ΔH^‡ from fitting kcat to the Eyring equation” value in test [3] (w/ 50 mM MgCl2, 5-35 °C) is on record as 3.4 ± 0.2 kcal/mol. Moreover, the “ΔG^‡ from fitting kcat to the Eyring equation” value in test [3] (w/ 50 mM MgCl2, 25 °C) came to 16.2 ± 0.4 kcal/mol. Also, the Kd on apo-ecTSase [4] worked out at 27000 ± 7000 µM.
For the compound `O=c1ccn([C@H]2C[C@H](O)[C@@H](COP(=O)(O)O)O2)c(=O)[nH]1` [dUMP, 2’-deoxyuridine-5’-monophosphate], the KMdUMP is 2.4 ± 0.2 µM in test [3] (w/ 50 mM MgCl2, 25 °C, 150 μM CH2H4fol) and 0.5 ± 0.1 µM in test [3] (w/o Mg^2+, 25 °C). For the same compound, the Kd at apo-ecTSase [5] amounted to 8.5 ± 0.9 µM; on ecTSase-Mg^2+ complex, 14 ± 2 µM.
Take `[2H][C@]12CNc3nc(N)[nH]c(=O)c3N1CN(c1ccc(C(=O)N[C@@H](CCC(=O)O)C(=O)O)cc1)C2` [6R-D-CH2H4fol]: on ecTSase [2], the KMCH2H4folate worked out at 19 ± 5 µM and the kcat turned out to be 2.3 ± 0.2 s⁻¹.
For the compound `[Ca+2].[Cl-].[Cl-]` [CaCl2], in test [3] (50 mM CaCl2, 25 °C), the “effect on initial velocities (ionic strength control)” value is given as “no difference; also recorded: no effects on the initial velocities”.
For the compound `Nc1nc2c(c(=O)[nH]1)N1CN(c3ccc(C(=O)N[C@@H](CCC(=O)O)C(=O)O)cc3)CC1CN2` (stereo partly drawn) [CH2H4fol, N^5,N^10-methylene-5,6,7,8-tetrahydrofolate], at ecTSase [2], the KMCH2H4folate came out at 15 ± 1 µM. Also, the kcat on ecTSase [2] was 8.7 ± 0.2 s⁻¹. For the same compound, the “Hill coefficient x (inhibitory binding mode)” value came out at 2 in test [3] (absence of Mg^2+, best-fit integer) and 1 in test [3] (presence of Mg^2+ (50 mM MgCl2), best-fit integer). In test [3] (both absence and presence of Mg^2+, best-fit integer, Eq 2), the “Hill coefficient n (productive binding mode)” value is given as 1. The KMCH4H4fol in test [3] (w/ 50 mM MgCl2, 25 °C, 100 μM dUMP) came out at 15 ± 1 µM; in test [3] (w/o Mg^2+, 25 °C), 17 ± 2 µM. The figures for the Kd (on ecTSase-dUMP complex; in test [6]) were 17 ± 2 µM and 8 ± 1 µM, respectively.

The values are drawn from paper PMC3674108 (Journal of the American Chemical Society, 2013).
